Reference: PMC7026418, “The kinase polypharmacology landscape of clinical PARP inhibitors” (Scientific Reports, 2020)
Where two headings read alike, the source gives them in different places.

Key:
Assay in all cases: biochemical
Set-up in all cases: DiscoveRx KINOMEscan active site-directed competition binding; percent of control kinase bound to immobilised ligand
IKK-epsilon = target: T1, IKK-epsilon (Homo sapiens, UniProt Q14164)
T1 construct: gene IKBKE
T1 sequence (Q14164 1-716): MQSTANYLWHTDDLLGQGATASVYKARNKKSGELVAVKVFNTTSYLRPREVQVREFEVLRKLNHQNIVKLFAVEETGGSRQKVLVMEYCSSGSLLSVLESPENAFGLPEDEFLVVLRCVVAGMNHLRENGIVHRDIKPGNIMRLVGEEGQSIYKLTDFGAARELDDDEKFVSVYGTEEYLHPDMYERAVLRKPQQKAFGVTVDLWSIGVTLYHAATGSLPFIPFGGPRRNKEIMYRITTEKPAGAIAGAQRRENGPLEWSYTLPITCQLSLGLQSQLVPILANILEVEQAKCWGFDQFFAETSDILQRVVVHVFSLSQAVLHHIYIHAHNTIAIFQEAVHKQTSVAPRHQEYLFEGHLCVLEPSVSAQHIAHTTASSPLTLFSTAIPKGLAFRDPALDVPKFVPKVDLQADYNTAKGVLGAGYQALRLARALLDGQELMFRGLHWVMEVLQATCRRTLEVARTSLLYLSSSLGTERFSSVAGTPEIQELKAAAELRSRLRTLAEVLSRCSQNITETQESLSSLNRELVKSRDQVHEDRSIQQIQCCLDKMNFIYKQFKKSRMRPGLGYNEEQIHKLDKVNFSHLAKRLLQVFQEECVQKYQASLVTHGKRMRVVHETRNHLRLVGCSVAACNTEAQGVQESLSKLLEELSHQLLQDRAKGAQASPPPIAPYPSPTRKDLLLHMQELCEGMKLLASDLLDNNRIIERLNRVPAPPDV

MST1R = MST1R (Homo sapiens, UniProt Q04912)
Chain of MST1R (Q04912 whole entry): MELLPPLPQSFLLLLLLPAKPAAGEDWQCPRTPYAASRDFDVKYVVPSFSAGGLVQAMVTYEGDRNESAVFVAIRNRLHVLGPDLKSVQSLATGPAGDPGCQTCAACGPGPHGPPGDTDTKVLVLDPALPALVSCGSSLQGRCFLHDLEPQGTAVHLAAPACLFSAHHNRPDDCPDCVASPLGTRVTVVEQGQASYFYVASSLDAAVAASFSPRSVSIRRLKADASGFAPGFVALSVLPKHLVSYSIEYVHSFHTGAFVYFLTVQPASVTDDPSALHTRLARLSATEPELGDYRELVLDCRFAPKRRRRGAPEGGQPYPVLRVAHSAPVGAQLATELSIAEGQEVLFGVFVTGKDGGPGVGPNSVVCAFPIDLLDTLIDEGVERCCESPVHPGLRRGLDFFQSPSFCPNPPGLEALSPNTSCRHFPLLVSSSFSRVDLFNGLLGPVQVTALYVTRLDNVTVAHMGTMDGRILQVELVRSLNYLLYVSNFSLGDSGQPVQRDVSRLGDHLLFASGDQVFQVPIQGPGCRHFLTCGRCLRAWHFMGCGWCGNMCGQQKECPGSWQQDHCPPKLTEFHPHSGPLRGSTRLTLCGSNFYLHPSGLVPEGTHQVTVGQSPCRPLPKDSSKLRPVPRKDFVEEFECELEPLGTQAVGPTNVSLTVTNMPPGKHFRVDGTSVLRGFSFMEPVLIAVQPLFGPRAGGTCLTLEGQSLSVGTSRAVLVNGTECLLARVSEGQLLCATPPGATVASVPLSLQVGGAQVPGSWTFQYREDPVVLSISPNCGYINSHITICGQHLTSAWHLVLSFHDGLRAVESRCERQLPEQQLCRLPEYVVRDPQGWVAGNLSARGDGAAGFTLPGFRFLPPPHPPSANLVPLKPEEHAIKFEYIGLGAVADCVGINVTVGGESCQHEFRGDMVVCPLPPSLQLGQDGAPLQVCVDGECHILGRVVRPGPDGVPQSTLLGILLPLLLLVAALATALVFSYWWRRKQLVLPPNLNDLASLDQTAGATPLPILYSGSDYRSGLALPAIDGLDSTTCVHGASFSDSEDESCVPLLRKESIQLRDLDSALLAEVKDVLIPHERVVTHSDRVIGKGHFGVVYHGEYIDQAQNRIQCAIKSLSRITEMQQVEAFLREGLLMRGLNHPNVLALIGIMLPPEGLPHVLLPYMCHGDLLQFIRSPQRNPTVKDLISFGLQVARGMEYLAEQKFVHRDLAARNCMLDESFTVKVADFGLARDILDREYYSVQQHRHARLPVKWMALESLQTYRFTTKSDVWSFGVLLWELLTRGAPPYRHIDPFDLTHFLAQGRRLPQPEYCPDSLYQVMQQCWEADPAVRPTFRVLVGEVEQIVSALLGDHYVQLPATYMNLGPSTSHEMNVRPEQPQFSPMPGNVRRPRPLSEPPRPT

NLK = target: T2, NLK (Homo sapiens, UniProt Q9UBE8)
T2 sequence (Q9UBE8 1-527): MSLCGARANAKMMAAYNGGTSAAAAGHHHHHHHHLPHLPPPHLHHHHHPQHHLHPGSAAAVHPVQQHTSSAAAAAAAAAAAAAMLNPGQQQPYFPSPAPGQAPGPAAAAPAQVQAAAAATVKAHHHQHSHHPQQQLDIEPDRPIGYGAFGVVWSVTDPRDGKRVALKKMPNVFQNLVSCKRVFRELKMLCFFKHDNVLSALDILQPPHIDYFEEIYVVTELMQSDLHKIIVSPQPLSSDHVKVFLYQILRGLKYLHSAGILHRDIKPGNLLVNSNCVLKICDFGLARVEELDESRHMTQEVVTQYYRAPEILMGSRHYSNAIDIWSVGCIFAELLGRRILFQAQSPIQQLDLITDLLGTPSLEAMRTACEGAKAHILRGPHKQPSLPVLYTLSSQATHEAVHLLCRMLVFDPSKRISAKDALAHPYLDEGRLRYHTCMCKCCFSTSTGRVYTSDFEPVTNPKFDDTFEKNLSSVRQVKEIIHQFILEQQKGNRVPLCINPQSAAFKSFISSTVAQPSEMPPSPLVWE

FGFR1 = FGFR1 (Homo sapiens, UniProt P11362)
Chain of FGFR1 (P11362 whole entry): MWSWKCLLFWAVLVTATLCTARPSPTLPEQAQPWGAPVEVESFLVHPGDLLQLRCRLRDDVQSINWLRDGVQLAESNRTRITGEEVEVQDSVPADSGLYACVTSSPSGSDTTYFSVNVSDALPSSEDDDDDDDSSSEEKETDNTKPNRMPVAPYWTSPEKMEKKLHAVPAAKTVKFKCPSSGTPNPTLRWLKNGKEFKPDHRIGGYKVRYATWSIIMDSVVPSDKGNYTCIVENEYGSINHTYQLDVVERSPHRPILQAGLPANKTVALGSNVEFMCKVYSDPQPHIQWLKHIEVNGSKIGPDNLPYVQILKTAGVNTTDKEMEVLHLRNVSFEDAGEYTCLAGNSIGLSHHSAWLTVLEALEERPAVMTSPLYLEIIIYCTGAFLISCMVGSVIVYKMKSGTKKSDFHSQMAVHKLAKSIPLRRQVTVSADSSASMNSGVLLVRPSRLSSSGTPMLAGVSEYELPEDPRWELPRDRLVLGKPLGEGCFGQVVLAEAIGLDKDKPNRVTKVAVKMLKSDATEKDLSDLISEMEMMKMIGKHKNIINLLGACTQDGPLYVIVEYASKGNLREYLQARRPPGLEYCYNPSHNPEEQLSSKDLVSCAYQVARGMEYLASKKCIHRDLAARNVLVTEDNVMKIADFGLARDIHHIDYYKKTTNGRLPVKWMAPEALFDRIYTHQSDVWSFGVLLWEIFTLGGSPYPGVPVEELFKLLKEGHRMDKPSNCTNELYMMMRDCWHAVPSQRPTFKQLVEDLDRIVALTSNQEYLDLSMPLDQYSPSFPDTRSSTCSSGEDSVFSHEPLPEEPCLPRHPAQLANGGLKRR

MYLK4 = target: T3, MYLK4 (Homo sapiens, UniProt Q86YV6)
T3 sequence (Q86YV6 1-388): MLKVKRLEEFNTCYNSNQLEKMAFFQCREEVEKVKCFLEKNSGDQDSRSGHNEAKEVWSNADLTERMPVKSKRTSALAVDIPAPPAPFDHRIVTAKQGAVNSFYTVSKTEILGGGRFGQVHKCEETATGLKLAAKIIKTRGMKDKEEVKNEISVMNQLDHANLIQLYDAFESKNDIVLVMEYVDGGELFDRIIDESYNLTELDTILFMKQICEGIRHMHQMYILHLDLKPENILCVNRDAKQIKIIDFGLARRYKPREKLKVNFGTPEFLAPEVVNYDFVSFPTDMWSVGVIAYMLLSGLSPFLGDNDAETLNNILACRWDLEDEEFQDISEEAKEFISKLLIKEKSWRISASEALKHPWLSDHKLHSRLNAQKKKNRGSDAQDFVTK

[1] = target: T4, RPS6KA4(Kin.Dom.1-N-terminal) (Homo sapiens, UniProt O75676)
T4 construct: Kin.Dom.1-N-terminal
T4 sequence (O75676 whole entry): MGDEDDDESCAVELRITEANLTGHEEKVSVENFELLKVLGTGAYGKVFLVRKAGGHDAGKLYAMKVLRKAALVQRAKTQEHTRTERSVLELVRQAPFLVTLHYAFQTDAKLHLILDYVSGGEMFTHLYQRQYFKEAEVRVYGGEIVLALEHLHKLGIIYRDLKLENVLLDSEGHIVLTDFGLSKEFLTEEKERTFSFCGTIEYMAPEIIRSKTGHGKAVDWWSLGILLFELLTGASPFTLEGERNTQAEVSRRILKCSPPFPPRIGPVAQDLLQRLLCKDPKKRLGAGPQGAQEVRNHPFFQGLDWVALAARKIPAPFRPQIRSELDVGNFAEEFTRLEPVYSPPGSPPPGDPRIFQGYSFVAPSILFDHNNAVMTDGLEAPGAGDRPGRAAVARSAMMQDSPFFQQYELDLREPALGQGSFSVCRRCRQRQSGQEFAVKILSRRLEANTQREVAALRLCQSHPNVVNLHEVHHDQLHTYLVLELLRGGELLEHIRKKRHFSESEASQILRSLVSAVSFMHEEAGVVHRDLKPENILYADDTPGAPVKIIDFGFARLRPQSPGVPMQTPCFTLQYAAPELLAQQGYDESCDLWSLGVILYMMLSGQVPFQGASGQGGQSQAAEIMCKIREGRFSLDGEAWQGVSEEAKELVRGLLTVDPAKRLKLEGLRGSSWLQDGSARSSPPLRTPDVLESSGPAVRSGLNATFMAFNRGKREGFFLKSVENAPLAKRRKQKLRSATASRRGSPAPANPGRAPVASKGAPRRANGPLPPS

IRAK1 = IRAK1 (Homo sapiens, UniProt P51617)
Chain of IRAK1 (P51617 whole entry): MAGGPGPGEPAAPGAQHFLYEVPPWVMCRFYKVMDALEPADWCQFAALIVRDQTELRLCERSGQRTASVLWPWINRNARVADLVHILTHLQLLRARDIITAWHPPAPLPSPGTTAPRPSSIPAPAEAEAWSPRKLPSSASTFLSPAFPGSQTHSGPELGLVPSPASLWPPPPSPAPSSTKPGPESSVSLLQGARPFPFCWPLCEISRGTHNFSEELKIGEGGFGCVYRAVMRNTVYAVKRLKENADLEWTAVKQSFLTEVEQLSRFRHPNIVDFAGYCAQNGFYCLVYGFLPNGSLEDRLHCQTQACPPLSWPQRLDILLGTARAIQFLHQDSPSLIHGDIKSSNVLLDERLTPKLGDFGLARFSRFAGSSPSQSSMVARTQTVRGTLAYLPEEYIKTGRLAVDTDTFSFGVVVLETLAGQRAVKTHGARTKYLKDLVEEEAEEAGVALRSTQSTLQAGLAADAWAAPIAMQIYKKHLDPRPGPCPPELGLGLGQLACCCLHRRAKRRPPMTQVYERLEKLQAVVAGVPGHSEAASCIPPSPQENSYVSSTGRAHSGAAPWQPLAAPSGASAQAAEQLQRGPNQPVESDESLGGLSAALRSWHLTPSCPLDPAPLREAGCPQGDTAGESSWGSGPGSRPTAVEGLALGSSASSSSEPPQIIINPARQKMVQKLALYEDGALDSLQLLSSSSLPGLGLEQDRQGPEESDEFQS

MET(Y1235D) = MET(Y1235D) (Homo sapiens, UniProt P08581, Y1235D)
Chain of MET(Y1235D) (P08581 whole entry Y1235D): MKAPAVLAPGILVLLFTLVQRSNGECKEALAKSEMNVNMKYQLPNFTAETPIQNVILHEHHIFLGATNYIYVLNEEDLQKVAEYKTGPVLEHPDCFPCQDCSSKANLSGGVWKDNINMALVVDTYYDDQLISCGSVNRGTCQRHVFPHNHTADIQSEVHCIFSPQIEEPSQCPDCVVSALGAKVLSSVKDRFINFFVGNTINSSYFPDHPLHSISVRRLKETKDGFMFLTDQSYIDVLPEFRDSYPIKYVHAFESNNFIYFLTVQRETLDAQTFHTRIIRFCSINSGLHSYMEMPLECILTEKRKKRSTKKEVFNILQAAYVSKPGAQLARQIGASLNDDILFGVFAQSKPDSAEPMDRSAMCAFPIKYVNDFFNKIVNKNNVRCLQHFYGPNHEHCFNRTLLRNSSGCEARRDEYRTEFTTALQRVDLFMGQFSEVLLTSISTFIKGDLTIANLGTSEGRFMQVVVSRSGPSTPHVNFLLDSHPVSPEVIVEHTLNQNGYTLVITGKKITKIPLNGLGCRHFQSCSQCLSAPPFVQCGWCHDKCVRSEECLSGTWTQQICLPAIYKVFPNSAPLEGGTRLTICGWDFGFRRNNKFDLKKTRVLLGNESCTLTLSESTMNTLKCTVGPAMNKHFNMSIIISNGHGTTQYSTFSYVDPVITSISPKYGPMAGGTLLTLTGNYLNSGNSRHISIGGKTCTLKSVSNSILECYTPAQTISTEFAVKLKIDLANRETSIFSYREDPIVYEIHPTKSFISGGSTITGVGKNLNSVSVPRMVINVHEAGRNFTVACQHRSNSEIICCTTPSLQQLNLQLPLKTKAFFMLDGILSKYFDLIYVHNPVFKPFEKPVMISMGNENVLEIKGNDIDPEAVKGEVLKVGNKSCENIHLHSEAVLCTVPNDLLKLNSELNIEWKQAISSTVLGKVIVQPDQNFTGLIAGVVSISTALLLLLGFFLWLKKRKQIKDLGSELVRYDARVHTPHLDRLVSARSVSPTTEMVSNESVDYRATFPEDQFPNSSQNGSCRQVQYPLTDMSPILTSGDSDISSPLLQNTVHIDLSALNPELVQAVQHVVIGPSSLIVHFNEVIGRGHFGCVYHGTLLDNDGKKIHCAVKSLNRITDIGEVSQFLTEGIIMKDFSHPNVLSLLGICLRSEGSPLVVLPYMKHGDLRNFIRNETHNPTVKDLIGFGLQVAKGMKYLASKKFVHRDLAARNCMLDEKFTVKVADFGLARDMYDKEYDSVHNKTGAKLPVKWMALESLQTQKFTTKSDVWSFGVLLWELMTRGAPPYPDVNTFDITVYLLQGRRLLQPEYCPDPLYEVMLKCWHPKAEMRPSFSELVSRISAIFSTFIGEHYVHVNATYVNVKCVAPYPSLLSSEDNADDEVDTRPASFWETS

[2] = read-out: Niraparib (MK-4827) / %Ctrl @ 10000nM
[3] = read-out: Olaparib / %Ctrl @ 10000nM
[4] = read-out: Rucaparib / %Ctrl @ 10000nM, binding competition, % of control
[5] = read-out: Talazoparib (BMN 673) / %Ctrl @ 10000nM

SMILES: NC(=O)c1cccc2cn(-c3ccc([C@@H]4CCCNC4)cc3)nc12 [Niraparib]
- percent of control binding at 10 µM (IKK-epsilon; [2]): 76%
- percent of control binding at 10 µM (MST1R; [2]): 88%
- percent of control binding at 10 µM (NLK; [2]): 100%
- percent of control binding at 10 µM (FGFR1; [2]): 88%
- percent of control binding at 10 µM (MYLK4; [2]): 20%
- percent of control binding at 10 µM [1, 2]: 100%
- percent of control binding at 10 µM (IRAK1; [2]): 18%
- percent of control binding at 10 µM (MET(Y1235D); [2]): 75%

SMILES: O=C(c1cc(Cc2n[nH]c(=O)c3ccccc23)ccc1F)N1CCN(C(=O)C2CC2)CC1 [Olaparib]
- percent of control binding at 10 µM (IKK-epsilon; [3]): 70%
- percent of control binding at 10 µM (MST1R; [3]): 84%
- percent of control binding at 10 µM (NLK; [3]): 85%
- percent of control binding at 10 µM (FGFR1; [3]): 100%
- percent of control binding at 10 µM (MYLK4; [3]): 92%
- percent of control binding at 10 µM [1, 3]: 100%
- percent of control binding at 10 µM (IRAK1; [3]): 82%
- percent of control binding at 10 µM (MET(Y1235D); [3]): 82%

SMILES: CNCc1ccc(-c2[nH]c3cc(F)cc4c3c2CCNC4=O)cc1 [Rucaparib]
- percent of control binding at 10 µM (IKK-epsilon; [4]): 73%
- percent of control binding at 10 µM (MST1R; [4]): 91%
- percent of control binding at 10 µM (NLK; [4]): 78%
- percent of control binding at 10 µM (FGFR1; [4]): 91%
- percent of control binding at 10 µM (MYLK4; [4]): 1.3%
- percent of control binding at 10 µM [1, 4]: 100%
- percent of control binding at 10 µM (IRAK1; [4]): 19%
- percent of control binding at 10 µM (MET(Y1235D); [4]): 92%

SMILES: Cn1ncnc1[C@H]1c2n[nH]c(=O)c3cc(F)cc(c23)N[C@@H]1c1ccc(F)cc1 [Talazoparib]
- percent of control binding at 10 µM (IKK-epsilon; [5]): 90%
- percent of control binding at 10 µM (MST1R; [5]): 99%
- percent of control binding at 10 µM (NLK; [5]): 100%
- percent of control binding at 10 µM (FGFR1; [5]): 94%
- percent of control binding at 10 µM (MYLK4; [5]): 90%
- percent of control binding at 10 µM [1, 5]: 61%
- percent of control binding at 10 µM (IRAK1; [5]): 88%
- percent of control binding at 10 µM (MET(Y1235D); [5]): 96%
